From ChEMBL document CHEMBL1201862, “PubChem BioAssay data set” (2004)
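Interpolation was linear, between the two tested concentrations surrounding the appropriate level; five concentrations were tested over 48 hours in 96-well plates. GI50 = concentration required for 50% inhibition of growth.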 Active and inactive are the calls of the source. No stated cut-off is given here; in the data, active = GI50 up to about 1.1 µM and inactive = higher.

How the values were obtained:
Experiment in all cases: NCI-60 cell line screen, 48 h
COLO 205 = test system: COLO 205
MCF7 = test system: MCF7
SK-MEL-28 = test system: SK-MEL-28
SF-268 = test system: SF-268
SNB-75 = test system: SNB-75
SK-MEL-5 = test system: SK-MEL-5
UO-31 = test system: UO-31
786-0 = test system: 786-0
TK-10 = test system: TK-10
A549 = test system: A549
SN12C = test system: SN12C
UACC-62 = test system: UACC-62
OVCAR-5 = test system: OVCAR-5
SW-620 = test system: SW-620
SF-295 = test system: SF-295
NCI-H226 = test system: NCI-H226
MDA-N = test system: MDA-N
EKVX = test system: EKVX
PC-3 = test system: PC-3
HT-29 = test system: HT-29
SK-OV-3 = test system: SK-OV-3
MOLT-4 = test system: MOLT-4
RXF 393 = test system: RXF 393
T47D = test system: T47D
SK-MEL-2 = test system: SK-MEL-2
SNB-19 = test system: SNB-19
IGROV-1 = test system: IGROV-1
M14 = test system: M14
HCT-15 = test system: HCT-15
A498 = test system: A498
Malme-3M = test system: Malme-3M
U-251 = test system: U-251
MDA-MB-435 = test system: MDA-MB-435
HCT-116 = test system: HCT-116
OVCAR-3 = test system: OVCAR-3
Hs-578T = test system: Hs-578T
NCI/ADR-RES = test system: NCI/ADR-RES
NCI-H23 = test system: NCI-H23
CAKI-1 = test system: CAKI-1
UACC-257 = test system: UACC-257
DU-145 = test system: DU-145
OVCAR-8 = test system: OVCAR-8
RPMI-8226 = test system: RPMI-8226
MDA-MB-231 = test system: MDA-MB-231
KM12 = test system: KM12
HOP-92 = test system: HOP-92
SF-539 = test system: SF-539
NCI-H460 = test system: NCI-H460
OVCAR-4 = test system: OVCAR-4
ACHN = test system: ACHN
SR = test system: SR
BT-549 = test system: BT-549
HOP-62 = test system: HOP-62
NCI-H522 = test system: NCI-H522

Measured: GI50

O=C1COC(c2ccccc2O)=NN1CCCN1CCCC1
> 100 µM: HCT-15
inactive: COLO 205 > 100 µM | MCF7 > 100 µM | SK-MEL-28 > 100 µM | SF-268 > 100 µM | SNB-75 > 100 µM | SK-MEL-5 > 100 µM | UO-31 > 100 µM | 786-0 > 100 µM | TK-10 > 100 µM | A549 > 100 µM | SN12C > 100 µM | UACC-62 > 100 µM | OVCAR-5 > 100 µM | SW-620 > 100 µM | SF-295 > 100 µM | NCI-H226 > 100 µM | MDA-N > 100 µM | EKVX > 100 µM | PC-3 > 100 µM | HT-29 > 100 µM | SK-OV-3 > 100 µM | MOLT-4 > 100 µM | RXF 393 > 100 µM | T47D > 100 µM | SK-MEL-2 > 100 µM | SNB-19 > 100 µM | IGROV-1 > 100 µM | M14 > 100 µM | A498 > 100 µM | Malme-3M > 100 µM | U-251 > 100 µM | MDA-MB-435 > 100 µM | HCT-116 > 100 µM | OVCAR-3 > 100 µM | Hs-578T > 100 µM | NCI/ADR-RES > 100 µM | NCI-H23 > 100 µM | CAKI-1 > 100 µM | UACC-257 > 100 µM | DU-145 > 100 µM | OVCAR-8 > 100 µM | RPMI-8226 > 100 µM | MDA-MB-231 > 100 µM | KM12 > 100 µM | HOP-92 > 100 µM | SF-539 > 100 µM | NCI-H460 > 100 µM | OVCAR-4 > 100 µM | ACHN > 100 µM | SR 60.3 µM | BT-549 > 100 µM | HOP-62 > 100 µM | NCI-H522 > 100 µM
